Test results published in the supplement of paper PMC10307832.

Legend:
Experiment in all cases: relative viability (nuclei count vs DMSO), 5 days (fraction); higher = more cells survive
CX-5461 + Pemetrexed = compound: Cc1cnc(CNC(=O)c2c(=O)c3ccc(N4CCCN(C)CC4)nc3n3c2sc2ccccc23)cn1 [CX-5461] + Nc1nc2[nH]cc(CCc3ccc(C(=O)N[C@@H](CCC(=O)O)C(=O)O)cc3)c2c(=O)[nH]1 [Pemetrexed] (partner 0.2 µM)
How it was run: (§1)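 After 5 days of treatment, lung cancer cells in 1536-well plates were fixed and stained in a single step (final 0.05% Triton X-100, 1% formaldehyde, 1 ug/ml Hoechst) and their nuclei counted on 4× images. Treatment had been applied by pin tool the day after seeding as one drug alone or as a fixed anchor-drug dose with five library-drug doses (not always all listed) in √10 steps. Relative viability is the nuclei count of treated wells divided by that of vehicle wells, and values are medians of duplicate plates.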

CX-5461 + Palbociclib = compound: Cc1cnc(CNC(=O)c2c(=O)c3ccc(N4CCCN(C)CC4)nc3n3c2sc2ccccc23)cn1 [CX-5461] + CC(=O)c1c(C)c2cnc(Nc3ccc(N4CCNCC4)cn3)nc2n(C2CCCC2)c1=O [Palbociclib] (partner 0.5 µM)
How it was run: as §1

IMD-0354 + Decitabine = compound: O=C(Nc1cc(C(F)(F)F)cc(C(F)(F)F)c1)c1cc(Cl)ccc1O [IMD-0354] + Nc1ncn([C@H]2C[C@H](O)[C@@H](CO)O2)c(=O)n1 [Decitabine] (partner 2 µM)
How it was run: as §1

IMD-0354 + Alpelisib = compound: O=C(Nc1cc(C(F)(F)F)cc(C(F)(F)F)c1)c1cc(Cl)ccc1O [IMD-0354] + Cc1nc(NC(=O)N2CCC[C@H]2C(N)=O)sc1-c1ccnc(C(C)(C)C(F)(F)F)c1 [Alpelisib] (partner 2 µM)
How it was run: as §1

Row | Cell Line | relative viability (CX-5461 + Pemetrexed; first compound 0.01 µM) | relative viability (CX-5461 + Pemetrexed; first compound 0.03162 µM) | relative viability (CX-5461 + Pemetrexed; first compound 0.1 µM) | relative viability (CX-5461 + Pemetrexed; first compound 0.3162 µM) | relative viability (CX-5461 + Pemetrexed; first compound 1 µM) | relative viability (CX-5461 + Palbociclib; first compound 0.01 µM) | relative viability (CX-5461 + Palbociclib; first compound 0.03162 µM) | relative viability (CX-5461 + Palbociclib; first compound 0.1 µM) | relative viability (CX-5461 + Palbociclib; first compound 0.3162 µM) | relative viability (CX-5461 + Palbociclib; first compound 1 µM) | relative viability (IMD-0354 + Decitabine; first compound 0.04 µM) | relative viability (IMD-0354 + Decitabine; first compound 0.1265 µM) | relative viability (IMD-0354 + Decitabine; first compound 0.4 µM) | relative viability (IMD-0354 + Decitabine; first compound 1.265 µM) | relative viability (IMD-0354 + Decitabine; first compound 4 µM) | relative viability (IMD-0354 + Alpelisib; first compound 0.04 µM) | relative viability (IMD-0354 + Alpelisib; first compound 0.1265 µM) | relative viability (IMD-0354 + Alpelisib; first compound 0.4 µM) | relative viability (IMD-0354 + Alpelisib; first compound 1.265 µM) | relative viability (IMD-0354 + Alpelisib; first compound 4 µM)
1 | NCI-H1755 | 0.389 | 0.507 | 0.427 | 0.399 | 0.488 | 0.434 | 0.449 | 0.431 | 0.447 | 0.466 | 0.798 | 0.741 | 0.671 | 0.644 | 0.316 | 0.964 | 0.562 | 0.43 | 0.57 | 0.222
2 | HCC-78 | 0.896 | 0.939 | 0.904 | 0.907 | 0.862 | 0.503 | 0.453 | 0.444 | 0.508 | 0.429 | 0.714 | 0.619 | 0.583 | 0.6 | 0.426 | 0.366 | 0.345 | 0.121 | 0.231 | 0.192
3 | IA-LM | – | – | – | – | – | – | – | – | – | – | – | – | – | – | – | 0.806 | 0.617 | 0.634 | 0.106 | 0.178
4 | NCI-H322M | 0.568 | 0.558 | 0.708 | 0.567 | 0.62 | 0.471 | 0.457 | 0.503 | 0.429 | 0.434 | 0.747 | 0.583 | 0.617 | 0.403 | 0.404 | 0.717 | 0.607 | 0.695 | 0.834 | 0.475
5 | NCI-H3122 | 0.201 | 0.196 | 0.2 | 0.206 | 0.18 | 0.192 | 0.191 | 0.175 | 0.169 | 0.186 | 0.46 | 0.455 | 0.408 | 0.469 | 0.227 | 0.845 | 0.917 | 0.365 | 0.271 | 0.163
6 | SK-LU-1 | 1.06 | 1.12 | 0.852 | 0.965 | 0.651 | 0.412 | 0.407 | 0.376 | 0.388 | 0.358 | 0.775 | 0.657 | 0.441 | 0.264 | 0.328 | 1.39 | 0.658 | 0.472 | 0.174 | 0.215
7 | COR-L23 | 0.283 | 0.187 | 0.207 | 0.157 | 0.201 | 0.27 | 0.269 | 0.233 | 0.234 | 0.125 | 0.402 | 0.443 | 0.339 | 0.141 | 0.146 | 0.728 | 0.776 | 0.427 | 0.136 | 0.164
8 | NCI-H2087 | 0.689 | 0.657 | 0.684 | 0.712 | 0.654 | 0.179 | 0.224 | 0.258 | 0.254 | 0.268 | 0.258 | 0.276 | 0.188 | 0.111 | 0.0967 | 1.04 | 0.938 | 0.329 | 0.136 | 0.131
9 | LC-2-ad | 0.238 | 0.27 | 0.244 | 0.296 | 0.279 | 0.474 | 0.552 | 0.42 | 0.469 | 0.47 | 0.876 | 0.698 | 0.5 | 0.322 | 0.199 | 0.979 | 0.835 | 0.397 | 0.106 | 0.115
10 | ChaGo-K-1 | 0.251 | 0.256 | 0.243 | 0.214 | 0.255 | 0.965 | 0.95 | 0.927 | 0.933 | 0.899 | 0.509 | 0.508 | 0.435 | 0.511 | 0.198 | – | – | – | – | –
11 | NCI-H522 | 1.15 | 1.1 | 0.832 | – | 0.918 | 1.04 | 0.957 | 1.18 | – | 0.993 | 0.748 | 0.659 | 0.615 | 0.57 | 0.428 | – | – | – | – | –
12 | NCI-H1299 | – | – | – | – | – | – | – | – | – | – | – | – | – | – | – | 1.01 | 1.02 | 0.709 | 0.276 | 0.194
13 | NCI-H1650 | 0.377 | 0.477 | 0.336 | 0.35 | 0.241 | 0.374 | 0.364 | 0.35 | 0.289 | 0.151 | 0.378 | 0.455 | 0.285 | 0.203 | 0.129 | – | – | – | – | –
14 | NCI-H1648 | 0.631 | 0.847 | 0.686 | 0.832 | 0.494 | 0.32 | 0.267 | 0.254 | 0.274 | 0.284 | 0.526 | 0.475 | 0.401 | 0.374 | 0.272 | – | – | – | – | –
15 | NCI-H596 | 0.47 | 0.45 | 0.523 | 0.504 | 0.48 | – | – | – | – | – | 1.02 | 0.998 | 0.825 | 0.849 | 0.616 | 0.484 | 0.458 | 0.466 | 0.528 | 0.326
16 | NCI-H727 | – | – | – | – | – | 0.601 | 0.601 | 0.717 | 0.65 | 0.637 | 0.827 | 0.864 | 0.788 | 0.502 | 0.405 | 0.606 | 0.641 | 0.497 | 0.396 | 0.352
17 | NCI-H2342 | 0.764 | 0.815 | 0.751 | 0.744 | 0.745 | 0.513 | 0.505 | 0.486 | 0.531 | 0.522 | 0.728 | 0.707 | 0.601 | 0.656 | 0.5 | – | – | – | – | –
18 | SW 900 | 0.437 | 0.52 | – | 0.521 | 0.441 | 0.533 | 0.538 | – | 0.621 | 0.519 | 0.432 | 0.414 | 0.397 | 0.208 | 0.213 | – | – | – | – | –
19 | A549 | – | – | – | – | – | – | – | – | – | – | 0.269 | 0.229 | 0.249 | 0.296 | 0.1 | 0.776 | 0.695 | 0.509 | 0.0677 | 0.0557
20 | NCI-H1563 | 0.81 | 0.747 | 0.908 | 0.687 | 0.651 | – | – | – | – | – | – | – | – | – | – | 0.875 | 0.889 | 0.886 | 0.726 | 0.399
21 | ABC-1 | – | – | – | – | – | 0.675 | – | 0.879 | 0.367 | 0.918 | 1.23 | 0.985 | 0.851 | – | 0.36 | 1.15 | 1.1 | 0.887 | 0.375 | 0.252
